The source of these data is PMC7464537, “Jaceidin Flavonoid Isolated from Chiliadenus montanus Attenuates Tumor Progression in Mice via VEGF Inhibition: In Vivo and In Silico Studies” (Plants, 2020).

For assay [1], the system named is liver cancer cell line (HepG2). As to the kind of experiment: SRB cytotoxicity assay, liver cancer cell line. The format is cell-based. The following applies: Homo sapiens, 48 h incubation, triplicate, ±SD. As for the experimental part:
(§1) The cytotoxic activity of the isolated compounds was measured in vitro against a human liver cancer cell line (HEPG2), a human breast cancer cell line (MCF-7) and a human melanocyte (normal cell line) (HFB-4) in comparison to Doxorubicin, using sulforhodamine B (SRB) assay. Human tumor cell lines (MCF-7, HepG2) used in this study were obtained from the American Type Culture collection (ATCC, Manassas, VA, USA). The tumor cell lines were maintained at the National Cancer Institute, Cairo, Egypt, by serial sub culturing. Cells were seeded in 96-well microliter plates at initial concentration of (3 × 10^3 cell/well) in a fresh medium and left for 24 h to attach to the plates before treatment of the tested compounds. Tested compounds were dissolved in DMSO and diluted with saline to the appropriate volume. After 24 h, cells were incubated with the appropriate concentration ranges of drugs (0, 12.5, 25, 50, 100 µg/mL), the wells were diluted to 150 µL with fresh medium and incubation was continued for 48 h at 37 °C. Control cells were treated with vehicle alone. Three wells were used for each drug concentration. After 48 h incubation, the cells were fixed with 50 µL of cold 10% trichloroacetic acid for 1 h at 4 °C, washed 5 times with distilled water using (Automatic Washer Tecan, Heidelberg, Germany) and then stained for 30 min at room temperature with 50 µL 0.4% SRB dissolved in 1% acetic acid. The wells were then washed 4 times with 1% acetic acid. The plates were air dried and the dye was solubilized with 100 µL/well 10 mM tris base (pH = 10.5). The Optical density (O.D.) of each well was measured spectrophotometrically at 570 nm with an ELISA microplate reader (sunrise Tecan reader, Germany). The percentage of cell survival was calculated as follows:(1) Surviving fraction=O.D.(treated cells)/O.D.(control cells)
(§2) The relation between surviving fraction and compound concentration was plotted to get the survival curve for tumor cell line after the specified time.
(In general: Sulforhodamine B stains cellular protein and so reports cell mass.)

The test system of assay [2] is breast cancer cell line (MCF-7). As to the kind of experiment: SRB cytotoxicity assay, breast cancer cell line. Type of assay: cell-based. The following applies: Homo sapiens, MCF7, 48 h incubation, triplicate, ±SD. As for the experimental part: as §1, §2
The subject of assay [3] is human melanocyte (normal cell line) (HFB-4). As to the kind of experiment: SRB cytotoxicity assay, normal cell line. The format is cell-based. The following applies: 48 h incubation, triplicate, ±SD. As for the experimental part: as §1, §2
Assay [4] relates to Ehrlich's ascites carcinoma (EAC) solid tumors. Nature of the assay: In vivo antitumor activity: tumor weight and histopathology of EAC solid tumors. Further details: species or system female Swiss albino mice. Particulars: extract 200 mg/kg or jaceidin 50 mg/kg three times weekly. The text has this:
Female Swiss albino mice with original body weight of 20–26 g and age of 8–10 weeks was used in the current experiment and fixed housing conditions were maintained at a normal dark/light cycle. Mice were housed in groups of six in polyethylene cages where food and water were provided ad libitum. The Research Ethics Committee at the Faculty of Pharmacy, Suez Canal University (license number 201809RA1), approved the study of protocol. Ehrlich’s Ascites Carcinoma is commonly employed as a solid form and easy to grow in suspension, when injected in the peritoneal cavity of female mice. Mice carrying the EAC cell line were obtained from the Department of Tumor Biology at the National Cancer Institute (Cairo, Egypt). The viability of EAC cells was ensured employing Trypan blue dye exclusion method. Then, EAC cells suspension was prepared in sterile saline solution to get a final working suspension; each 0.1 mL of which contained 2.5 million of EAC cells. At the beginning of the experiment, mice were shaved at their back, and inoculated with 0.1 mL of the EAC suspension.
Seven days after inoculation with the tumor cells in all female mice, mice were randomly divided into three groups, ten mice in each. The different treatments were started as follows;
(§3) Groups 1: mice treated with saline (5 mL/kg). All therapies continued for 21 days. Group 2: mice treated with C. montanus extract 200 mg/kg three times weekly. Group 3: mice treated with Jaceidin 50 mg/kg three times weekly.
(§4) One day after the end of the experiment (day 21), mice were subjected to light ether anesthesia and sacrificed by cervical dislocation; blood samples were collected by cardiac puncture. Blood samples were maintained at room temperature for 30 min and centrifuged at 12,000× g for 10 min. Then, sera were separated and stored at −20 °C until used. An ELISA kit (Sun Red Biotechnology Company, Shanghai, China) was employed for estimating serum VEGF level according to the manufacturer’s protocol. The color intensity was measured at 450 nm using an automated ELISA reader (Europe S.A., Belgium). Tumor was dissected into two halves; the first half was kept at −20 °C to be used in estimating MDA and GSH levels. The second half was cut into small pieces, then fixed in 10% phosphate-buffered formalin for histopathological examination.
After fixation, samples were dehydrated in ascending grades of ethyl alcohol, cleared in xylol, embedded in paraffin wax, and then subjected to routine histopathological procedures. Sectioning was done at 5–7 µm thick followed by staining with Hematoxylin and Eosin (H&E). Digital imaging of representative areas was captured using image capture engine software (AMT V600.259) which attached to Olympus CX 41biocular microscope. Histopathological analysis of the digital images of solid tumor was performed by quantities the mitotic figures and tumor giant cells. For counting, ten sections from each experimental group were analyzed at scale bar 20 µm by using image J software that was developed by the National Institute of Health (Betheda, MD, USA). Histopathological examinations were evaluated blindly.

For assay [5], the system named is GSH and MDA levels in tumor tissues. Nature of the assay: ELISA of GSH and MDA levels in tumor homogenates. Particulars: extract 200 mg/kg or jaceidin 50 mg/kg three times weekly. The format is in vivo, female Swiss albino mice. As for the experimental part:
as §3, §4
Using a frozen sample, a part of tumor was weighted and homogenized as 10% (w/v) in phosphate-buffered saline using a Teflon homogenizer (Glass col homogenizer system, Vernon Hills, IL, USA). Homogenates were then centrifuged at 15,000× g for 10 min at 4 °C. After centrifugation, the supernatants were collected into 2 dry tubes and kept at −80 °C. The levels of MDA and GSH were determined in the tumor homogenates of […] using ELISA kits for MDA (Catalog No. MBS741034) and GSH (Catalogue Number: MBS026635) according to the manufacturer’s instructions.
Background: An ELISA detects its analyte on a solid surface through an enzyme-linked reagent.

For assay [6], the system named is vascular endothelial growth factor B (VEGF-B). As to the kind of experiment: ELISA of serum VEGF level in EAC-bearing mice. Type of assay: in vivo, female Swiss albino mice. Particulars: extract 200 mg/kg or jaceidin 50 mg/kg three times weekly. As for the experimental part:
as §3, §4

[7] abbreviates: EAC solid tumors in female mice, 21 days.

Structures are written as SMILES.

For orientation: IC50 means the point on the concentration scale where inhibition reaches its midpoint. With `COc1ccc(-c2oc3cc(O)cc(O)c3c(=O)c2OC)cc1OC` [Compound 3, 5,7-dihydroxy-3,3’,4’-trimethoxyflavone], the IC50 in assay [1] was 30.5 ± 0.61 µM; in assay [2] it was 10.7 ± 0.4 µM; in assay [3], > 200 µM.
The like results for `C=C(C)[C@@H]1CC[C@]2(C)CCC[C@](C)(O)[C@H]2C1` [Compound 1, Intermedeol] were, in that order, 48.2 ± 0.3 µM, 45.6 ± 0.5 µM and > 200 µM.
The like results for `COc1cccc2c1C(=O)c1c(O)c3c(c(O)c1C2=O)C[C@@](O)(C(=O)CO)C[C@@H]3O[C@H]1C[C@H](N)[C@H](O)[C@H](C)O1` [Doxorubicin, reference compound] were, in that order, 4.58 ± 0.47 µM, 4 ± 0.25 µM and 14.7 ± 0.5 µM.
`COc1cc(-c2oc3cc(O)c(OC)c(O)c3c(=O)c2OC)ccc1O` [Compound 4, 5,7,4’-trihydroxy-3,6,3’-trimethoxyflavone] showed an IC50 in assay [1] of 9.7 ± 0.26 µM. For the same compound, the IC50 in assay [2] was determined as 9.3 ± 0.3 µM. Besides, the IC50 in assay [3] is > 200 µM. For the same compound, in assay [4] (setting [7]), the mean tumor weight came to 0.032 g and the “tumor weight decrease compared to tumor control” value turned out to be 96.4%. Further, the “necrosis in the tumor tissues” value in assay [4] (H&E histopathology, mean ± SD, tumor control 3.46 ± 0.68) was determined as 1.63 ± 0.68. Besides, the “number of tumor giant cells in the tumor tissues” value in assay [4] (H&E histopathology, mean ± SD, tumor control 7.65 ± 2.48) came out at 1.30 ± 1.08. Moreover, the “number of mitotic figures in the tumor tissues” value in assay [4] (H&E histopathology, mean ± SD, tumor control 31.45 ± 5.46) was 5.20 ± 2.35. In assay [4] (H&E histopathology), the “mitotic figure decrease compared to tumor control” value is on record as 83.47%, the “necrosis decrease compared to tumor control” value is 53.01% and the “tumor giant cell decrease compared to tumor control” value is recorded as 83%. In assay [5] (mean ± SD, tumor control 11.62 ± 1.96), the “GSH levels in tumor tissues” value is reported as 29.25 ± 3.36. Moreover, in assay [5] (mean ± SD, tumor control 15.18 ± 1.89), the “MDA levels in the tumor tissues” value is 4.25 ± 1.28. In assay [5] (tumor tissues), the “GSH increase compared to tumor control” value is given as 2.5 folds and the “MDA decrease compared to tumor control” value stood at 72%. Besides, the “serum VEGF decrease compared to tumor control” value in assay [6] is 61.7%. Moreover, the “serum VEGF levels” value in assay [6] (mean ± SD, tumor control 71.46 ± 1.88) came out at 27.3 ± 2.82.
Turning to `CC(C)(O)[C@@]1(O)CC[C@]2(C)C(C1)[C@@](C)(O)CC[C@H]2O` (stereo partly drawn) [Compound 6, 1β,4β,7β, 11-tetrahydroxyeudesmane], the IC50 in assay [1] is 35.1 ± 0.6 µM; in assay [2], 33.2 ± 0.35 µM; in assay [3], > 200 µM.
For `C=C1CCC[C@]2(C)CCC(C(C)(C)O)C[C@@]12OO` (stereo partly drawn) [Compound 2, 5α-hydroperoxy-β-eudesmol] the same measures were 39.7 ± 0.65 µM, 41.5 ± 0.55 µM and > 200 µM.
For `C=C(C)[C@]1(O)CC[C@]2(C)[C@H](O)CC[C@](C)(O)[C@@H]2C1` [Compound 5, Eudesm-11,13-ene-1β,4β,7α-triol] the same measures were 33.4 ± 0.49 µM, 38.5 ± 0.55 µM and > 200 µM.
